Experimental data published in ChEMBL document CHEMBL1147193, “New 5-substituted thiazolo[3,2-b][1,2,4]triazol-6-ones: synthesis and anticancer evaluation” (2007).

What was measured:
Type in all cases: functional
NCI-H226 = experiment: Growth inhibition of human NCI-H226 cells after 48 hrs by SRB protein assay; details: NCI-H226, 48 h
SW-620 = experiment: Growth inhibition of human SW620 cells after 48 hrs by SRB protein assay; details: SW-620, 48 h
HT-29 = experiment: Growth inhibition of human HT29 cells after 48 hrs by SRB protein assay; details: HT-29, 48 h
SK-MEL-5 = experiment: Growth inhibition of human SK-MEL-5 cells after 48 hrs by SRB protein assay; details: SK-MEL-5, 48 h
SF-268 = experiment: Anticancer activity against human SF268 cells assessed as growth of cells at 100 uM relative to untreated cells
CCRF-CEM = experiment: Growth inhibition of human CCRF-CEM cells after 48 hrs by SRB protein assay
SN12C = experiment: Growth inhibition of human SN12C cells after 48 hrs by SRB protein assay
MCF7 = experiment: Growth inhibition of human MCF7 cells after 48 hrs by SRB protein assay; details: MCF7, 48 h
HCC 2998 = experiment: Growth inhibition of human HCC2998 cells after 48 hrs by SRB protein assay; details: HCC 2998, 48 h
OVCAR-3 = experiment: Growth inhibition of human OVCAR-3 cells after 48 hrs by SRB protein assay; details: OVCAR-3, 48 h
T47D = experiment: Growth inhibition of human T47D cells after 48 hrs by SRB protein assay
786-0 = experiment: Growth inhibition of human 786-0 cells after 48 hrs by SRB protein assay; details: 786-0, 48 h
MDA-MB-435 = experiment: Growth inhibition of human MDA-MB-435 cells after 48 hrs by SRB protein assay; details: MDA-MB-435, 48 h
BT-549 = experiment: Growth inhibition of human BT549 cells after 48 hrs by SRB protein assay; details: BT-549, 48 h
UACC-257 = experiment: Growth inhibition of human UACC257 cells after 48 hrs by SRB protein assay; details: UACC-257, 48 h
HOP-92 = experiment: Growth inhibition of human HOP92 cells after 48 hrs by SRB protein assay; details: HOP-92, 48 h
CAKI-1 = experiment: Growth inhibition of human CAKI1 cells after 48 hrs by SRB protein assay; details: CAKI-1, 48 h
A549 = experiment: Growth inhibition of human A549/ATCC cells after 48 hrs by SRB protein assay; details: A549, 48 h
Hs-578T = experiment: Growth inhibition of human HS578T cells after 48 hrs by SRB protein assay
COLO 205 = experiment: Growth inhibition of human COLO205 cells after 48 hrs by SRB protein assay; details: COLO 205, 48 h
ACHN = experiment: Growth inhibition of human ACHN cells after 48 hrs by SRB protein assay
HCT-15 = experiment: Growth inhibition of human HCT15 cells after 48 hrs by SRB protein assay; details: HCT-15, 48 h
RXF 393 = experiment: Growth inhibition of human RXF393 cells after 48 hrs by SRB protein assay; details: RXF 393, 48 h
NCI-H460 = experiment: Growth inhibition of human NCI-H460 cells after 48 hrs by SRB protein assay; details: NCI-H460, 48 h
TK-10 = experiment: Growth inhibition of human TK10 cells after 48 hrs by SRB protein assay; details: TK-10, 48 h
HOP-62 = experiment: Growth inhibition of human HOP62 cells after 48 hrs by SRB protein assay; details: HOP-62, 48 h
RPMI-8226 = experiment: Growth inhibition of human RPMI8226 cells after 48 hrs by SRB protein assay; details: RPMI-8226, 48 h
M14 = experiment: Growth inhibition of human M14 cells after 48 hrs by SRB protein assay; details: M14, 48 h
NCI-H322M = experiment: Growth inhibition of human NCI-H322M cells after 48 hrs by SRB protein assay
NCI/ADR-RES = experiment: Growth inhibition of human NCI/ADR-RES cells after 48 hrs by SRB protein assay
OVCAR-8 = experiment: Growth inhibition of human OVCAR8 cells after 48 hrs by SRB protein assay; details: OVCAR-8, 48 h
UACC-62 = experiment: Growth inhibition of human UACC62 cells after 48 hrs by SRB protein assay; details: UACC-62, 48 h
K562 = experiment: Growth inhibition of human K562 cells after 48 hrs by SRB protein assay; details: K562, 48 h
OVCAR-5 = experiment: Growth inhibition of human OVCAR5 cells after 48 hrs by SRB protein assay; details: OVCAR-5, 48 h

GI50 (NCI-H226): 26.3 µM
GI50 (SW-620): 38.9 µM
GI50 (HT-29): 43.7 µM
GI50 (SK-MEL-5): > 100 µM
GI50 (CCRF-CEM): 24.5 µM
GI50 (MCF7): 38.9 µM
GI50 (HCC 2998): 18.2 µM
GI50 (OVCAR-3): 45.7 µM
GI50 (T47D): 23.4 µM
GI50 (786-0): 15.5 µM
GI50 (MDA-MB-435): > 100 µM
GI50 (BT-549): 21.9 µM
GI50 (A549): > 100 µM
GI50 (COLO 205): 21.4 µM
GI50 (ACHN): 17.4 µM
GI50 (HCT-15): 20.9 µM
GI50 (NCI-H460): > 100 µM
GI50 (RPMI-8226): 4.57 µM
GI50 (NCI-H322M): > 100 µM
GI50 (OVCAR-8): > 100 µM
GI50 (K562): 95.5 µM
GI50 (OVCAR-5): 17 µM
SMILES: CCOC(=O)c1ccc(NC(=O)CC2Sc3ncnn3C2=O)cc1 (configuration not stated)
TGI (NCI-H226; read-out: Log TGI (converted)): 66.1 µM
TGI (SW-620; read-out: Log TGI (converted)): > 100 µM
TGI (HT-29; read-out: Log TGI (converted)): > 100 µM
TGI (SK-MEL-5; read-out: Log TGI (converted)): > 100 µM
Activity (SF-268): 8%
TGI (CCRF-CEM; read-out: Log TGI (converted)): 77.6 µM
GI50 (SN12C): 26.3 µM
TGI (SN12C; read-out: Log TGI (converted)): 87.1 µM
TGI (MCF7; read-out: Log TGI (converted)): > 100 µM
TGI (HCC 2998; read-out: Log TGI (converted)): 32.4 µM
TGI (OVCAR-3; read-out: Log TGI (converted)): > 100 µM
TGI (T47D; read-out: Log TGI (converted)): 57.5 µM
TGI (786-0; read-out: Log TGI (converted)): 28.8 µM
TGI (MDA-MB-435; read-out: Log TGI (converted)): > 100 µM
TGI (BT-549; read-out: Log TGI (converted)): 43.7 µM
GI50 (UACC-257): 87.1 µM
TGI (UACC-257; read-out: Log TGI (converted)): > 100 µM
GI50 (HOP-92): 19.5 µM
TGI (HOP-92; read-out: Log TGI (converted)): 47.9 µM
GI50 (CAKI-1): 63.1 µM
TGI (CAKI-1; read-out: Log TGI (converted)): > 100 µM
TGI (A549; read-out: Log TGI (converted)): > 100 µM
GI50 (Hs-578T): > 100 µM
TGI (Hs-578T; read-out: Log TGI (converted)): > 100 µM
TGI (COLO 205; read-out: Log TGI (converted)): 40.7 µM
TGI (ACHN; read-out: Log TGI (converted)): 31.6 µM
TGI (HCT-15; read-out: Log TGI (converted)): 52.5 µM
GI50 (RXF 393): 21.4 µM
TGI (RXF 393; read-out: Log TGI (converted)): 67.6 µM
TGI (NCI-H460; read-out: Log TGI (converted)): > 100 µM
GI50 (TK-10): 22.9 µM
TGI (TK-10; read-out: Log TGI (converted)): 55 µM
GI50 (HOP-62): 21.4 µM
TGI (HOP-62; read-out: Log TGI (converted)): 47.9 µM
TGI (RPMI-8226; read-out: Log TGI (converted)): 9.77 µM
GI50 (M14): 18.6 µM
TGI (M14; read-out: Log TGI (converted)): 34.7 µM
TGI (NCI-H322M; read-out: Log TGI (converted)): > 100 µM
GI50 (NCI/ADR-RES): 18.2 µM
TGI (NCI/ADR-RES; read-out: Log TGI (converted)): 36.3 µM
TGI (OVCAR-8; read-out: Log TGI (converted)): > 100 µM
GI50 (UACC-62): 40.7 µM
TGI (UACC-62; read-out: Log TGI (converted)): > 100 µM
TGI (K562; read-out: Log TGI (converted)): > 100 µM
TGI (OVCAR-5; read-out: Log TGI (converted)): 31.6 µM
